Counter-ions that a name gives are not always drawn.
Assay: Preliminary oral toxicity testing in mice
Type: in vivo
Conditions: one mouse per dosage; for LLD (lowest lethal dose): death within 24 hrs.; for MTD: in vivo, survival, read-out: HTD (highest tolerated dose)
From the text: The toxicity of the compounds in accordance with the invention is investigated by orally administering different dosages of the dissolved or suspended compounds to mice. One mouse is used per dosage. The dosage is halved stepwise so that a dosage range of about 1.5 to the power of ten is covered. The results of this preliminary toxicity testing are reproduced in the form of two administered dosages.
The higher dosage (LLD=lowest lethal dose) led to death within 24 hrs., the lower dosage (HTD=highest tolerated dose) was survival. (Dosage data in miligram per kilogram body weight, administered orally).

Compound | LLD (lowest lethal dose) | MTD
CC1=NCCn2c1ccc2-c1ccccc1.O=C(O)/C=C/C(=O)O [Example 9, 3,4-dihydro-1-methyl-6-phenylpyrrolo[1,2-a]pyrazine fumarate (1:1)] | 625 miligram per kilogram body wei | 312 mg/kg
CC1=NCCn2c1cc1c2-c2ccc(OC3CCCC3)cc2CC1.O=C(O)/C=C/C(=O)O [Example 53, 3-cyclopentyloxy-5,6,10,11-tetrahydro-8-methylbenzo[g]pyrazino[1,2-a]indole fumarate (1:1)] | 500 miligram per kilogram body wei | 250 mg/kg
CC1=NCCn2c1ccc2-c1ccc(Cl)cc1.O=C(O)/C=C/C(=O)O [Example 2, 6-(p-chloro-phenyl)-3,4-dihydro-1-methylpyrrolo[1,2-a]pyrazine fumarate (1:1)] | 625 miligram per kilogram body wei | 312 mg/kg
CC1=NCCn2c1cc1c2-c2ccccc2CC1 [Example 10, 5,6,10,11-tetrahydro-8-methyl-benzo[g]pyrazino[1,2-a]indole fumarate (2:3)] | 312 miligram per kilogram body wei | 156 mg/kg
CC1=NCCn2c1cc1c2-c2ccc(Cl)cc2CC1.O=C(O)/C=C/C(=O)O [Example 12, 3-chloro-5,6,10,11-tetrahydro-8-methylbenzo[g]pyrazino[1,2-a]indole fumarate (1:1)] | 250 miligram per kilogram body wei | 125 mg/kg
CC1=NCCn2c1ccc2-c1ccc(OC2CCCC2)cc1.O=C(O)/C=C/C(=O)O [Example 37, 6-[p-(cyclopentyloxy)phenyl]-3,4-dihydro-1-methylpyrrolo[1,2-a]pyrazine fumarate (1:1)] | 625 miligram per kilogram body wei | 312 mg/kg
CC1NCCn2c1cc1c2-c2ccc(Cl)cc2CC1.O=C(O)/C=C/C(=O)O (stereo not shown) [Example 31, 3-chloro-5,6,8,9,10,11-hexahydro-8-methylbenzo[g]pyrazino[1,2-a]indole fumarate (1:1)] | 1000 miligram per kilogram body wei | 500 mg/kg
CC1NCCn2c1cc1c2-c2ccccc2CC1.O=C(O)/C=C/C(=O)O (stereo not shown) [Example 29, 5,6,8,9,10,11-hexahydro-8-methylbenzo[g]pyrazino[1,2-a]indole fumarate (1:1)] | 625 miligram per kilogram body wei | 312 mg/kg

— patent US5292732A, “Pyrrolopyrazine derivatives” (Hoffmann-La Roche Inc., priority 1991, dated 1994)
